Counter-ions that a name gives are not always drawn.
Experiments:
gastric acid secretion = assay: Gastric anti-secretion activity, pylorus-ligated rat (Shay method); format: in vivo; conditions: intraduodenal, male Sprague Dawley rats, pylorus ligature, 4 hours
Protocol: The gastric anti-secretion activity of the compounds of the invention was tested according to the method described by Shay et al. (H. Shay, D. C. Sun, M. Gruenstein, Gastroenterology, 26, 906 [1954]). Thus, male Sprague Dawley rats weighing around 200 g with free access to water are made to fast 24 hours before the experiments. Ligatures are made on the pylora under ether anesthesia and the medications to be tested are simultaneously administered either by the intraperitoneal route (i.p.) or by intraduodenal route (i.d.). The abdomen is closed again and the animals are sacrificed after four hours. The gastric secretion is recovered and centrifuged at 1,500 g for 15 minutes; the volume of the supernatant is measured and the acidity is determined by automatic titration of 0.05 N sodium hydroxide. A control group is included for each experiment.
The dose necessery for 50% inhibition (ED50) of the acid secretion (X concentration of hydrochloric acid by volume) is calculated using the method described by Litchfield and Wilcoxon (J. T. Litchfield, F. A. Wilcoxon, J. Pharmacol., 96, 99 [1949]). The results obtained for compounds pounds representative of the invention are given in Table 3 and compared with the clinically used reference compounds: Pirenzepine (anti-cholinergic), Ranitidine (antagonist of histaminergic H2 receptors) and Omeprazole (proton pump inhibitor).

[1] = test system: vomiting induced by cis-platinum; assay: Anti-emetic activity: inhibition of vomiting induced by cis-platinum in ferrets; format: in vivo, ferret; conditions: 30 minutes before cis-platinum 30 mg/kg i.v., ferrets observed six hours
Protocol: Inhibition induced by cis-platinum is evaluated in ferrets using a modification of the protocol described by Barnes et al. (J. M. Barnes, N. M. Barnes, B. Costall, R. J. Naylor, F. D. Tattersall, Neuropharmacology, 27[8], 783 [1988]). Thus, albino ferrets or European polecats of both sexes weighing between 0.5 kg and 1.5 kg are put under anesthesia with pentobarbitone (30-40 mg/kg i.p.) and a polyethylene injection tube is inserted into the left jugular vein. Two days later, the compounds being tested are administered i.v. 30 minutes before cis-platinum (30 mg/kg i.v.). The animals are observed for six hours and the number of vomitings is recorded. A control group is included for each experiment.

5-HT1A receptor = target: T1, 5-HT1A receptor (Rattus norvegicus, UniProt P19327); assay: Affinity for the 5-HT1A receptor: inhibition of [3H]8-OH-DPAT binding to rat cerebral cortex membranes; conditions: [3H]8-OH-DPAT 1 nM, 30 min at 25 deg. C.
T1 construct: Rat cerebral cortex membranes (10 mg by weight, moistened, per ml) are incubated with [3H]8-OH-DPAT (1 nM); from tissue; host or cells: rat cerebral cortex membranes (male Sprague Dawley rats)
T1 sequence (P19327 1-422): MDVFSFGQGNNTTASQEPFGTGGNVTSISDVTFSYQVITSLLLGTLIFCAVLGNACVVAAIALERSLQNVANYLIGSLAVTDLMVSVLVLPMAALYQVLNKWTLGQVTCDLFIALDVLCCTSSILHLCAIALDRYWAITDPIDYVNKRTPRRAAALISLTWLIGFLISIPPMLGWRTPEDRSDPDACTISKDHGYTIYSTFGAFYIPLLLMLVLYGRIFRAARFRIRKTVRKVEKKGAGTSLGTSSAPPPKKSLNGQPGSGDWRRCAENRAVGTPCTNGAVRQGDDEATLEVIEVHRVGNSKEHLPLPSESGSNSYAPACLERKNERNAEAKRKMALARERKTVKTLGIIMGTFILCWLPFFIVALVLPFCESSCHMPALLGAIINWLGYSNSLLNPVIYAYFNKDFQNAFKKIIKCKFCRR
Protocol: The affinity of the compounds for the 5-HT1A serotonergic receptors is determined by measuring the inhibition of [3H]8-hydroxy-2 (di-n-propylamino) tetralin([3H]8-OH-DPAT) connected with the cerebral cortex of the rat according to the method of Perutka et al. (J. Neurochem., 47,529 [1986]).
Cerebral cortices of male Sprague Dawley rats are homogenized in 50 mM Tris-HCl, pH—7.4, and centrifuged at 40,000 g for 10 min. at 4 degrees C. Pellets are put into suspension in the same buffer and incubated for 10 min. at 37 degrees C. and the homogenates are again centrifuged at 40,000 g for 10 min. at 4 degrees C.
Competitive inhibition tests of the bond of [3H]8-OH-DAPT are performed three times with unmarked competitors with concentrations ranging between 100 pM and 100 μM. Rat cerebral cortex membranes (10 mg by weight, moistened, per ml) are incubated with [3H]8-OH-DPAT (1 nM) for 30 min. at 25 deg. C. in Tris-HCl 50 mM, pH 7.4 comprising 4 mM of CaCl2, 10 μM of pargylin and 0.1% ascorbic acid.
The bonded [3H]8-OH-DPAT is separated from the free [3H]8-OH-DPAT by immediate filtration by means of Whatman GF/B fiberglass filters using a Brandel cell recoverer. The filters [filtrates?] are washed three times with the same buffer at 0-4 deg. C. and their radioactivity is determined by means of a liquid scintillation spectrometer.
The specific bond is obtained by subtracting the given bond in the presence of 1 μM of 8-OH-DPAT from the total bond. The bond characteristics are analyzed by interactive analysis of the nonlinear regression by computer using the Ligand program (Munson and Rodbard, Anal. Biochem., 107, 220 [1980]).

intestinal transit = assay: Effect on intestinal transit (charcoal meal) in rats; format: in vivo, rat; conditions: 30 minutes before charcoal, sacrificed after 15 minutes
Protocol: A compound of the invention was tested to determine its effect on the intestinal transit according to the method described by A. F. Green (Br. J. Pharmacol., 14, 26-34 [1959]). To male Sprague Dawley rats weighing approximately 200 g before being made to fast, there was administered (p.o.) a meal comprised of charcoal (10 g) and gum arabic (2.5 g) dissolved in 100 ml of distilled water. The animals were sacrificed after 15 minutes and the charcoal transit time was measured.
The product to be tested was administered (s.c.) 30 minutes before the administration of the charcoal.

gastric emptying = assay: Effect on gastric emptying (phenol red meal) in rats; format: in vivo, rat; conditions: sacrificed 15 minutes after phenol red meal
Protocol: A compound of the invention was tested for its effect on gastric emptying according to the method described by C. Scarpignato et al. (Arch. Int. Pharmacodyn., 246, 286-294 [1980]). Thus, 1.5 ml of a 1.5% methyl cellulose solution comprising phenol red (0.5 mg/ml) was administered orally to Sprague Dawley rats weighing approximately 200 g and previously subjected to fasting. The animals were sacrificed after 15 minutes and the pylora and the esophagi were tied off. The contents of the stomachs were collected in a teflon beaker containing a solution of soda (100 ml at 0.1 N) and the mixture was homogenized. The proteins were precipitated by addition of 0.5 ml of a 20% aqueous solution of trifluoroacetic acid to a 5 ml portion of homogenate. After centrifuging, the part of the solution rising to the top was separated and added to 4.5 ml of an aqueous solution of soda at 0.5 N and the phenol red content was determined by using a spectrophotometer at a wavelength of 560 nm.
The compound to be tested was administered (s.c.) 15 minutes […] the administration of phenol red.

Structure (SMILES)	Ki (5-HT1A receptor)	melting point	also measured
COc1ccccc1OCCNCCCCNC(=O)c1ccccc1 [Compound No. 1, N-[4-{2-(2-Methoxyphenoxy)ethyl}aminobutyl]benzamide]	0.2 nM	–	ED50 (dose necessary for 50% inhibition of the acid secretion) (gastric acid secretion): 3.7 mg/kg i.d.; Percent Inhibition (vomiting) ([1]; 1.0 mg/kg iv): 40%
COc1ccccc1OCCNCCCCNC(=O)CC1CCCC1 [compound 59]	0.65 nM	–	–
COc1ccccc1OCCNCCCCNC(=O)C1CCCCCC1 (as salt: fumarate) [compound 46, N[4-{2-(2-methoxyphenoxy)ethyl}aminobutyl]cycloheptylamide]	–	125 to 126 °C	–
COc1ccccc1OCCNCCCCNC(=O)CC(C)(C)C [compound 33]	0.33 nM	–	–
CNC(=O)c1ccccc1OCCNCCCCNC(=O)c1ccccc1 [Compound No. 18]	–	–	Charcoal Transit Time Compared to Control (intestinal transit; 0.3 mg/kg s.c.): +16%; Charcoal Transit Time Compared to Control (intestinal transit; 1.0 mg/kg s.c.): +20%; ED50 (dose necessary for 50% inhibition of the acid secretion) (gastric acid secretion): 3.2 mg/kg i.d.; Percent Inhibition (vomiting) ([1]; 1.0 mg/kg iv): 62%; Effect on Gastric Emptying Time Compared to Control (gastric emptying; 0.3 mg/kg s.c.): +8%; Effect on Gastric Emptying Time Compared to Control (gastric emptying; 1.0 mg/kg s.c.): +18%; Effect on Gastric Emptying Time Compared to Control (gastric emptying; 3.0 mg/kg s.c.): +26%
CSc1ccccc1OCCNCCCCNC(=O)c1ccccc1 [compound 11]	0.71 nM	–	–
COc1cccc(C(=O)NCCCCNCCOc2ccccc2OC)c1 (as salt: fumarate) [compound 14]	–	68 to 70 °C	–
COc1ccccc1OCCNCCCCNC(=O)c1cccc(I)c1 (as salt: salt) [compound 30]	–	121 to 121.5 °C	–
COc1ccccc1OCCNCCCCNC(=O)c1ccccn1 [compound 3]	1.4 nM	–	–
O=C(NCCCCNCCOc1ccccc1O)c1ccccc1 [compound 20, N[4-{2-(2-hydroxyphenoxy)ethyl}aminobutyl]benzamide]	0.23 nM	–	ED50 (dose necessary for 50% inhibition of the acid secretion) (gastric acid secretion): 3.1 mg/kg i.d.
CCOc1ccccc1OCCNCCCCNC(=O)C(C)(C)C [compound 64]	0.77 nM	–	–
COc1ccccc1OCCNCCCCNC(=O)C1(C)CCCCC1 (as salt: fumarate) [compound 45]	–	120 to 122 °C	–
COc1ccccc1OCCNCCCCNC(=O)C1CCCCCC1 [compound 46, N[4-{2-(2-methoxyphenoxy)ethyl}aminobutyl]cycloheptylamide]	0.094 nM	–	–
COc1ccccc1OCCNCCCCNC(=O)C1CCCCC1 (as salt: fumarate) [compound 34, N[4-{2-(2-methoxyphenoxy)ethyl}aminobutyl]cyclohexylamide]	–	134 to 136 °C	–
COc1ccccc1OCCNCCCCNC(=O)CC(C)(C)C (as salt: fumarate) [compound 33]	–	130 to 132 °C	–
CNC(=C[N+](=O)[O-])NCCSCc1ccc(CN(C)C)o1 [Ranitidine, reference compound]	–	–	ED50 (dose necessary for 50% inhibition of the acid secretion) (gastric acid secretion): 22 mg/kg i.d.

Structure (SMILES)	Ki (5-HT1A receptor)	melting point	also measured
COc1ccccc1OCCNCCCCNC(=O)c1ccc(F)cc1 (as salt: salt) [compound 23]	–	119 to 120.5 °C	–
CN1CCN(CC(=O)N2c3ccccc3C(=O)Nc3cccnc32)CC1 [Pirenzepine, reference compound]	–	–	ED50 (dose necessary for 50% inhibition of the acid secretion) (gastric acid secretion): 14 mg/kg i.d.
COc1ccccc1OCCNCCCCNC(=O)CC1CCCC1 (as salt: fumarate) [compound 59]	–	118 to 119 °C	–
COc1ccccc1OCCNCCCCNC(=O)c1ccc(F)cc1 [compound 23]	0.33 nM	–	–
Cc1nccn1CC1CCc2c(c3ccccc3n2C)C1=O (stereo not drawn) [Ondansetron, reference compound]	–	–	Percent Inhibition (vomiting) ([1]; 0.5 mg/kg iv): 62%
COc1cccc(C(=O)NCCCCNCCOc2ccccc2OC)c1 [compound 14]	1.6 nM	–	–
CCN(CC)CCNC(=O)c1cc(Cl)c(N)cc1OC [Metoclopramide, reference compound]	–	–	Percent Inhibition (vomiting) ([1]; 1.0 mg/kg iv): 15%
COc1ccccc1OCCNCCCCNC(=O)C12CC3CC(CC(C3)C1)C2 [Compound No. 2, N-[4-{-2-(2-Methoxyphenoxy)ethyl}aminobutyl]-1-adamantamide]	0.1 nM	–	ED50 (dose necessary for 50% inhibition of the acid secretion) (gastric acid secretion): 3.6 mg/kg i.d.
COc1ccccc1OCCNCCCCNC(=O)C1CCCCC1 [compound 34, N[4-{2-(2-methoxyphenoxy)ethyl}aminobutyl]cyclohexylamide]	0.087 nM	–	–
COc1ccccc1OCCNCCCCNC(=O)c1cccc(I)c1 [compound 30]	0.44 nM	–	–
COc1ccc2[nH]c([S+]([O-])Cc3ncc(C)c(OC)c3C)nc2c1 (stereo not drawn) [Omeprazole, reference compound]	–	–	ED50 (dose necessary for 50% inhibition of the acid secretion) (gastric acid secretion): 4.6 mg/kg i.d.
COc1ccccc1OCCNCCCCNC(=O)C1CC2CCC1C2 (stereo not drawn) (as salt: fumarate) [compound 50, N[4-{2-(2-methoxyphenoxy)ethyl}aminobutyl]2-bicyclo[2,2,1]heptylamide]	–	130 to 131 °C	–
CCOc1ccccc1OCCNCCCCNC(=O)C(C)(C)C (as salt: fumarate) [compound 64]	–	131.5 to 133 °C	–
COc1ccccc1OCCNCCCCNC(=O)c1ccccn1 (as salt: salt) [compound 3]	–	152 to 154 °C	–
COc1ccccc1OCCNCCCCNC(=O)C1(C)CCCCC1 [compound 45]	0.14 nM	–	–
COc1ccccc1OCCNCCCCNC(=O)C1CC2CCC1C2 (stereo not drawn) [compound 50, N[4-{2-(2-methoxyphenoxy)ethyl}aminobutyl]2-bicyclo[2,2,1]heptylamide]	0.071 nM	–	–
